From patent publication US9938258B2 (Karyopharm Therapeutics Inc., priority 2012, dated 2018)
pIC50: −log10 of the molar value. Read-outs that look alike come from different tables or passages of the source.

Columns and labels:
[1] = tested on: MS751 cells; test: MTT cell proliferation assay, MS751; assay type: cell-based, human; conditions: Homo sapiens
Summary of the method: (§1)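 Cells plated at 5,000-10,000/well and attached overnight, then treated with eight compound concentrations from 1 nM to 30 μM. MTT added ~4 h, formazan solubilised and read at 490 nm. Percent inhibition versus negative control = (1-(ODo/OD))×100, mostly in duplicate, mean ± SE.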

[2] = tested on: Z138 cells; test: MTT cell proliferation assay, Z138; assay type: cell-based; conditions: Homo sapiens
Summary of the method: as §1

[3] = tested on: 3T3 cells; test: MTT cell proliferation assay, 3T3; assay type: cell-based, mouse; conditions: Mus musculus
Summary of the method: as §1

[4] = MS751, MS751 cells, approximately 64-72 hours incubation, read-out: MTT Assay IC50, MS751
[5] = Z-138, Z138 cells, approximately 64-72 hours incubation, read-out: MTT Assay IC50, Z138
[6] = NIH3T3, 3T3 cells, approximately 64-72 hours incubation, read-out: MTT Assay IC50, 3T3
[7] = MS751, read-out: MTT Assay IC50, MS751
[8] = Z-138, read-out: MTT Assay IC50, Z138
[9] = NIH3T3, read-out: MTT Assay IC50, 3T3

| SMILES | pIC50 [1, 4] | pIC50 [2, 5] | pIC50 [3, 6] | pIC50 [1, 7] | pIC50 [2, 8] | pIC50 [3, 9] |
| --- | --- | --- | --- | --- | --- | --- |
| CC(=O)c1ccc(-c2cc(Cl)c3c(c2)CC(CNC(=O)/C=C(/C)c2cccnc2)O3)s1 (stereo not drawn) [Compound 282, (Z)-N-((5-(5-Acetylthiophen-2-yl)-7-chloro-2,3-dihydrobenzofuran-2-yl)methyl)-3-(pyridin-3-yl)but-2-enamide] | 5.30 to 7.00 | 5.30 to 7.00 | < 4.52 |  |  |  |
| CC(=O)c1ccc(-c2cc(Cl)c3c(c2)CC(CNC(=O)/C=C(\C)c2cccnc2)O3)s1 (stereo not drawn) [Compound 283, (E)-N-((5-(5-acetylthiophen-2-yl)-7-chloro-2,3-dihydrobenzofuran-2-yl)methyl)-3-(pyridin-3-yl)but-2-enamide] | 4.52 to 5.30 | 4.52 to 5.30 | < 4.52 |  |  |  |
| CC(=O)c1ccc(-c2cc(Cl)c3c(c2)CC(CNC(=O)/C=C/c2c(C)nn(-c4ccc(F)cc4)c2Cl)O3)s1 (stereo not drawn) [Compound 284, (E)-N-((5-(5-acetylthiophen-2-yl)-7-chloro-2,3-dihydrobenzofuran-2-yl)methyl)-3-(5-chloro-1-(4-fluorophenyl)-3-methyl-1H-pyrazol-4-yl)acrylamide] | < 4.52 | < 4.52 | < 4.52 |  |  |  |
| CC(=O)c1ccc(-c2cc(Cl)c3c(c2)CC(CNC(=O)/C=C/c2cc(C)n(-c4nccs4)c2C)O3)s1 (stereo not drawn) [Compound 285, (E)-N-((5-(5-Acetylthiophen-2-yl)-7-chloro-2,3-dihydrobenzofuran-2-yl)methyl)-3-(2,5-dimethyl-1-(thiazol-2-yl)-1H-pyrrol-3-yl)acrylamide] | < 4.52 | < 4.52 | < 4.52 |  |  |  |
| CC(=O)c1ccc(-c2cc(Cl)c3c(c2)CC(CNC(=O)/C(C#N)=C/c2ccoc2)O3)s1 (stereo not drawn) [Compound 286, (E)-N-((5-(5-acetylthiophen-2-yl)-7-chloro-2,3-dihydrobenzofuran-2-yl)methyl)-2-cyano-3-(furan-3-yl) acrylamide] |  |  |  | 4.52 to 5.30 | 4.52 to 5.30 | < 4.52 |
| CC(=O)c1ccc(-c2cc(Cl)c3c(c2)CC(CNC(=O)/C=C/c2c(C)nn4c(C(F)(F)F)ccnc24)O3)s1 (stereo not drawn) [Compound 287, (E)-N-((5-(5-acetylthiophen-2-yl)-7-chloro-2,3-dihydrobenzofuran-2-yl)methyl)-3-(2-methyl-7-(trifluoromethyl)pyrazolo[1,5-a]pyrimidin-3-yl) acryl amide] | < 4.52 | < 4.52 | < 4.52 |  |  |  |
| CC(=O)c1ccc(-c2cc(Cl)c3c(c2)CC(CNC(=O)/C=C/c2cc(C)n(-c4cc(C)on4)c2C)O3)s1 (stereo not drawn) [Compound 288, (E)-N-((5-(5-acetylthiophen-2-yl)-7-chloro-2,3-dihydrobenzofuran-2-yl)methyl)-3-(2,5-dimethyl-1-(5-methylisoxazol-3-yl)-1H-pyrrol-3-yl)acrylamide] | < 4.52 | < 4.52 | < 4.52 |  |  |  |
| CC(=O)c1ccc(-c2cc(Cl)c3c(c2)CC(CNC(=O)/C=C/c2cc4cnn(C(C)C)c4[nH]c2=O)O3)s1 (stereo not drawn) [Compound 289, (E)-N-((5-(5-acetylthiophen-2-yl)-7-chloro-2,3-dihydrobenzofuran-2-yl)methyl)-3-(1-isopropyl-6-oxo-6,7-dihydro-1H-pyrazolo[3,4-b]pyridin-5-yl)acrylamide] | 4.52 to 5.30 | 5.30 to 7.00 | < 4.52 |  |  |  |
| CC(=O)c1ccc(-c2cc(Cl)c3c(c2)CC(CNC(=O)/C=C/c2nc4ccccc4o2)O3)s1 (stereo not drawn) [Compound 290, (E)-N-((5-(5-acetylthiophen-2-yl)-7-chloro-2,3-dihydrobenzofuran-2-yl)methyl)-3-(benzo[d]oxazol-2-yl)acrylamide] | < 4.52 | < 4.52 | < 4.52 |  |  |  |
| CC(=O)c1ccc(-c2cc(Cl)c3c(c2)CC(CNC(=O)/C=C/c2sc4ccccc4c2Cl)O3)s1 (stereo not drawn) [Compound 291, (E)-N-((5-(5-acetylthiophen-2-yl)-7-chloro-2,3-dihydrobenzofuran-2-yl)methyl)-3-(3-chlorobenzo[b]thiophen-2-yl)acrylamide] | < 4.52 | < 4.52 | < 4.52 |  |  |  |
| CC(=O)c1ccc(-c2ccc3c(c2)CC(CNC(=O)/C=C/c2cccnc2)O3)s1 (stereo not drawn) [Compound 292, (E)-N-((5-(5-acetylthiophen-2-yl)-2,3-dihydrobenzofuran-2-yl)methyl)-3-(pyridin-3-yl)acrylamide] | 5.30 to 7.00 | 5.30 to 7.00 | 5.30 to 7.00 |  |  |  |
| CC(=O)c1ccc(-c2cc(Cl)c3c(c2)CC(CNC(=O)/C=C/c2ccno2)O3)s1 (stereo not drawn) [Compound 293, (E)-N-((5-(5-acetylthiophen-2-yl)-7-chloro-2,3-dihydrobenzofuran-2-yl)methyl)-3-(isoxazol-5-yl)acrylamide] | < 4.52 | < 4.52 | < 4.52 |  |  |  |
| CNc1ccc(/C=C/C(=O)NCC2Cc3cc(-c4ccc(C(C)=O)s4)cc(Cl)c3O2)cn1 (stereo not drawn) [Compound 294, (E)-N-((5-(5-acetylthiophen-2-yl)-7-chloro-2,3-dihydrobenzofuran-2-yl)methyl)-3-(6-(methylamino)pyridin-3-yl)acrylamide] | 5.30 to 7.00 | 5.30 to 7.00 | 4.52 to 5.30 |  |  |  |
| CC(=O)c1ccc(-c2cc(Cl)c3c(c2)CC(CNC(=O)/C=C/c2ccc(N(C)C)nc2)O3)s1 (stereo not drawn) [Compound 295, (E)-N-((5-(5-acetylthiophen-2-yl)-7-chloro-2,3-dihydrobenzofuran-2-yl)methyl)-3-(6-(dimethylamino)pyridin-3-yl)acrylamide] | < 4.52 | < 4.52 | < 4.52 |  |  |  |
| COc1ccc(/C=C/C(=O)NCC2Cc3cc(-c4ccc(C(C)=O)s4)cc(Cl)c3O2)cn1 (stereo not drawn) [Compound 296, (E)-N-((5-(5-acetylthiophen-2-yl)-7-chloro-2,3-dihydrobenzofuran-2-yl)methyl)-3-(6-methoxypyridin-3-yl)acrylamide] | 4.52 to 5.30 | 4.52 to 5.30 | < 4.52 |  |  |  |
| CC(=O)c1ccc(-c2cc(Cl)c3c(c2)CC(CNC(=O)/C=C/c2ccc(-c4ccc(F)cc4)s2)O3)s1 (stereo not drawn) [Compound 297, (E)-N-((5-(5-acetylthiophen-2-yl)-7-chloro-2,3-dihydrobenzofuran-2-yl)methyl)-3-(5-(4-fluorophenyl)thiophen-2-yl)acrylamide] | < 4.52 | < 4.52 | < 4.52 |  |  |  |
| CC(=O)c1ccc(-c2cc(Cl)c3c(c2)CC(CNC(=O)/C=C/c2cncc(F)c2)O3)s1 (stereo not drawn) [Compound 298, (E)-N-((5-(5-acetylthiophen-2-yl)-7-chloro-2,3-dihydrobenzofuran-2-yl)methyl)-3-(5-fluoropyridin-3-yl)acrylamide] | < 4.52 | 5.30 to 7.00 | < 4.52 |  |  |  |
| CC(=O)c1ccc(-c2cc(Cl)c3c(c2)CC(CNC(=O)/C=C\c2cccnc2)O3)s1 (stereo not drawn) [Compound 299, (Z)-N-((5-(5-acetylthiophen-2-yl)-7-chloro-2,3-dihydrobenzofuran-2-yl)methyl)-3-(pyridin-3-yl)acrylamide] | 5.30 to 7.00 | 5.30 to 7.00 | < 4.52 |  |  |  |
| Cc1noc(C)c1-c1cc(Cl)c2c(c1)CC(CNC(=O)/C=C/c1ccc(N)nc1)O2 (stereo not drawn) [Compound 300, (E)-3-(6-aminopyridin-3-yl)-N-((7-chloro-5-(3,5-dimethylisoxazol-4-yl)-2,3-dihydrobenzofuran-2-yl)methyl)acrylamide] | 5.30 to 7.00 | > 7.00 | < 4.52 |  |  |  |
| CC(=O)c1ccc(-c2cc(Cl)c3c(c2)CC(CNC(=O)/C=C/c2cc(C)n(-c4ccccc4)c2C)O3)s1 (stereo not drawn) [Compound 301, (E)-N-((5-(5-Acetylthiophen-2-yl)-7-chloro-2,3-dihydrobenzofuran-2-yl)methyl)-3-(2,5-dimethyl-1-phenyl-1H-pyrrol-3-yl)acrylamide] | < 4.52 | < 4.52 | < 4.52 |  |  |  |
| CC(=O)c1ccc(Oc2cc(Cl)c3c(c2)CC(CNC(=O)/C=C/c2cccnc2)O3)s1 (stereo not drawn) [Compound 303, (E)-N-((5-(5-acetylthiophen-2-yloxy)-7-chloro-2,3-dihydrobenzofuran-2-yl)methyl)-3-(pyridin-3-yl)acrylamide] | 5.30 to 7.00 | 5.30 to 7.00 | 5.30 to 7.00 |  |  |  |
| CC(C)(O)c1ccc(-c2cc(Cl)c3c(c2)CC(CNC(=O)/C=C/c2cccnc2)O3)s1 (stereo not drawn) [Compound 304, (E)-N-((7-chloro-5-(5-(2-hydroxypropan-2-yl)thiophen-2-yl)-2,3-dihydrobenzofuran-2-yl)methyl)-3-(pyridine-3-yl)acrylamide] | > 7.00 | > 7.00 | 5.30 to 7.00 |  |  |  |
| CC(=O)c1ccc(-c2cccc3c2OC(CNC(=O)/C=C/c2ccc(N)nc2)C3)s1 (stereo not drawn) [Compound 305, (E)-N-((7-(5-Acetylthiophen-2-yl)-2,3-dihydrobenzofuran-2-yl)methyl)-3-(6-aminopyridin-3-yl)acrylamide] | 5.30 to 7.00 | 5.30 to 7.00 | 4.52 to 5.30 |  |  |  |
| CC(O)c1ccc(-c2cc(Cl)c3c(c2)CC(CNC(=O)/C=C/c2ccc(N)nc2)O3)s1 (stereo not drawn) [Compound 306, (E)-3-(6-aminopyridin-3-yl)-N-((7-chloro-5-(5-(1-hydroxyethyl)thiophen-2-yl)-2,3-dihydrobenzofuran-2-yl)methyl)acrylamide] | 5.30 to 7.00 | 5.30 to 7.00 | < 4.52 |  |  |  |
| CC(O)c1ccc(-c2cc(Cl)c3c(c2)CC(CNC(=O)/C=C/c2cccnn2)O3)s1 (stereo not drawn) [Compound 307] | 5.30 to 7.00 | 5.30 to 7.00 | 5.30 to 7.00 |  |  |  |
| CC(=O)c1ccc(-c2cc(Cl)c3c(c2)CC(CNS(=O)(=O)/C=C/c2cccnc2)O3)s1 (stereo not drawn) [Compound 310, (E)-N-((5-(5-acetylthiophen-2-yl)-7-chloro-2,3-dihydrobenzofuran-2-yl)methyl)-2-(pyridine-3-yl) ethenesulphonamide] |  |  |  | < 4.52 | 4.52 to 5.30 | < 4.52 |
